# Assay results from US12377069B2, “Compounds, compositions, methods of using, and methods for preparing compounds” (UNIVERSITY OF LOUISVILLE RESEARCH FOUNDATION, INC., priority 2018, dated 2025).
# What was measured:
# AhR^−/− mice = assay: Acute ALD model in AhR^−/− mice; format: in vivo, mouse; settings: 20 mg/kg at 2, 14 and 26 h
# Description: FIG. 19: UroA treatment failed in AhR^−/− mice to protect against binge EtOH-induced ALD. C547BL/6 and AhR^−/− mice (n=4/group) were oral gavaged with alcohol (2.5 g/kg) at 0, 12 and 24 h. Mice were treated with Veh (0.25% CMC) or UroA (20 mg/kg) at 2, 14 and 26 h. Mice were euthanized at 32 h. The Fecal albumin was measured using standard ELISA. Serum endotoxin, TNF-α, ALT as well as liver ALT and TG levels using ELISA methods. Error bars, ±SEM. Statistics were performed using 2way ANOVA multiple comparisons. * p<0.05, ** p<0.01, *** p<0.001.
# AhR has a role for UroA mediated protection in ALD model: To address the role of AhR expression for UroA mediated activities, we performed acute ALD models in C57BL/6J mice and AhR^−/− mice. In this experiment, mice (WT, AhR^−/− mice (n=4/group)) were treated with half the dose of EtOH (2.5 g/kg) at 0, 12 and 24 h followed by oral treatment Veh (0.25% CMC) or UroA (20 mg/kg) at 2, 14 and 26 h.
# [1] = test system: colon cancer cell line (SW480); settings: human
smiles,measurement,setting,value
"O=c1oc2cc(O)ccc2c2ccc(O)cc12 [UroA, 3,8-dihydroxy-6H-dibenzo[b,d]pyran-6-one]",TG levels in AhR^−/− mice,AhR^−/− mice,down regulated TG levels
same,"EtOH-induced gut leakage, serum endotoxins, TNF-α, ALT, liver ALT in AhR^−/− mice",AhR^−/− mice; EtOH 2.5 g/kg,did not appear to rescue
same,cell viability in combination with 5FU,[1],69%
